Measured values: paper PMC7508583, “Discovery and Preclinical Development of Antigiardiasis Fumagillol Derivatives” (Antimicrobial Agents and Chemotherapy, 2020)
Converted amounts (≈) assume the structure as drawn. Where two headings read alike, the source gives them in different places.

What was measured:
[1] = tested on: E. histolytica HM1:IMSS trophozoites; experiment: Trophozoite viability MLC determination (ameba assay); assay type: cell-based, Entamoeba histolytica; details: 3 days treatment, 3 days proliferation without drug
Description: The inhibition of metabolism enables the organism to resume proliferation once treatment is completed. To discriminate between the lethality of the promising compounds and the induction of metabolic inactivity by the promising compounds, the minimum lethal concentration (MLC) values were determined by treating the trophozoites with the test compounds for 3 days and transferring the resulting cultures to medium lacking the compounds for 3 days of proliferation. This assay was described previously for G. lamblia ([18]) and was adapted to E. histolytica in the current study. In addition to measuring MLC values in the G. lamblia WB and GS strains and in E. histolytica, the MLCs were also measured in metronidazole-resistant G. lamblia strains 713M3 and 1279-M1, to confirm that these compounds were also effective when the metronidazole resistance mechanism evolved. […] Thus, even though fumagillin is a potent anti-G. lamblia drug, it might act in part by metabolic inhibition. Fumagillin’s IC50 and MLC values in E. histolytica were within the same range, supporting the true killing mechanism.
E. histolytica strain HM1:IMSS trophozoites were grown at 37°C in TYI-S-33 medium supplemented with penicillin (100 U/ml) and streptomycin sulfate (100 μg/ml) ([65]). Trophozoites were grown anaerobically in borosilicate tubes or T25 flasks, and subcultures were made 1 to 2 times a week. Trophozoites were detached for inoculation by chilling the cultures on ice for 20 min.
For the MLC assay, compounds were prepared as described above by 2-fold serial dilutions in fresh growth medium, and 50 μl was transferred into the wells of a 96-well plate in duplicate. Confluent E. histolytica trophozoites were diluted in growth medium to a density of 200 cells/μl. Fifty-microliter cultures were distributed in each well to bring the total assay volume to 100 μl. The plates were kept under an anaerobic environment for 72 h at 37°C. Each well was surveyed under a microscope to visualize trophozoite survival, mobility, and attachment. In all cases, duplicate measurements yielded identical growth/death transitions. The plates were chilled on ice for 30 min, and the entire content of each of 4 wells within the growth/death transition of one of the duplicate experiments was transferred for proliferation into 8-ml tubes containing growth medium and no drug. The tubes were incubated under anaerobic condition for 3 days at 37°C and checked under a microscope. The MLC value was the concentration in the tube with the lowest compound concentration without any live organism.

[2] = tested on: G. lamblia WB trophozoites; experiment: Trophozoite growth inhibition, ATP content (ATPlite) assay; assay type: cell-based; details: Giardia duodenalis, 72 h, read-out: Mean [IC50 ± SE(IC50)] G. lamblia WB
Description: (§1) Antigiardia assays followed by enzyme inhibition determination facilitated the selection of compounds for permeation and stability studies by in vitro methods, prior to advancing to in vivo studies. Compound potency was evaluated first by measuring G. lamblia trophozoite growth as a function of the compound concentration and calculating the IC50 values. Potency in Entamoeba histolytica trophozoites was also determined because of the early report that fumagillin cured amebiasis ([19]). The intent was to test whether the compounds would be suitable to treat gastrointestinal amebiasis rather than the invasive form of the disease, given that the designed strategy was based on reducing compound permeation across the epithelial cell barrier. […] Trophozoite growth was determined by monitoring the ATP cell content using a high-throughput homogeneous assay developed previously for G. lamblia ([57]). The ATP content serves as a marker of cell integrity since ATP degrades rapidly when cells die and the luminescence signal generated by luciferase requires ATP. The same assay was also adopted in 96-well plates for E. histolytica trophozoite growth measurement, as described in Materials and Methods. A similar E. histolytica trophozoite ATP content assay was described previously ([58]). Fumagillin, TNP-470, and a standard-of-care drug (metronidazole) served as positive controls, and cells without the drug (in the presence of 0.5% dimethyl sulfoxide [DMSO]) served as the negative control.
(§2) Trophozoites of G. lamblia isolates WB and GS were grown anaerobically in borosilicate glass screw-cap culture tubes (Fisher Scientific) at pH 7.0 in Keister’s modified TYI-S-33 medium (ATCC). The medium was supplemented with 10% heat-inactivated bovine serum (Sigma-Aldrich) and 0.05% bovine bile (Sigma-Aldrich). To attain low-oxygen-tension conditions, the tubes were filled to 85% to 90% of their total volume capacity and incubated without shaking at 37°C. Subcultures (2 × 10^5 trophozoites per tube) were made three times a week. Detachment of trophozoites for inoculation was achieved by chilling the cultures on ice for 20 min. Culturing and detachment of metronidazole-resistant G. lamblia assemblage A 713M3 and assemblage B 1279-M1 trophozoites followed the same protocol, except that the growth medium was supplemented with metronidazole, with the concentration gradually being increased to 10 μM.
(§3) The growth inhibition assays were performed in duplicate, once for each compound, for all compounds except fumagillin, which served as a positive control and whose inhibitory ability was measured multiple times as new sets of compounds were tested. All dry compounds except for fumagillin were dissolved in dimethyl sulfoxide (DMSO; Sigma) at a stock concentration of 10 mM and then diluted 1:100 in growth medium to a final compound concentration of 100 μM; fumagillin was diluted to 20 μM. Compound solution aliquots (100 μl) were prepared by 3-fold serial dilutions in growth medium containing 0.5% DMSO and distributed into 96-well assay plates. This was followed by the addition of 10 μl G. lamblia or E. histolytica culture containing 10,000 trophozoites. Fumagillin served as a positive control, and the medium-diluted DMSO alone served as a negative control. The assay plates were placed in a BD GasPak EZ container system (BD Diagnostics) to create an anaerobic growth environment. The sealed containers were incubated at 37°C for 72 h. Following incubation, 70 μl/well of the ATPlite reagent (PerkinElmer) was added to the assay plates for one-step lysis and ATP level detection. The luminescent signals of the assay plates were measured on an EnSpire 2300 plate reader (PerkinElmer). Concentration-response titration points for each compound were fitted to a 4-parameter logistic nonlinear regression model using the KaleidaGraph tool, yielding the IC50 value and standard error (SE).

[3] = tested on: G. lamblia GS trophozoites; experiment: as above; assay type: cell-based, Giardia lamblia; details: Giardia duodenalis, 72 h, read-out: Mean [IC50 ± SE(IC50)] G. lamblia GS
Description: as §1, §2, §3

[4] = tested on: CHO-K1 (CHO) cells; experiment: CHO cell cytotoxicity, ATP content assay; assay type: cell-based; details: for IC50: Cricetulus griseus, CHO, 48 h, read-out: IC50 CHO
Description: Cytotoxicity in CHO-K1 (CHO) cells was also determined using the homogeneous ATP content assay with an ATPlite kit, to enable comparison with the IC50 values in the G. lamblia and E. histolytica trophozoites and provide an initial estimate of toxicity risk. Fumagillin served as a comparative control, untreated cells (including 0.5% DMSO) served as a negative control, and puromycin served as a positive control.
CHO cells (180 μl) were seeded at a density of 5,000 cells/well and incubated for 24 h at 37°C in a 5% CO2 incubator in a 96-well plate. The cells were treated with 20 μl fumagillin or fumagillol derivative solutions diluted to obtain final concentrations of 100, 30, 10, 3, 1, and 0.3 μM. Puromycin was diluted from 10 through 0.03 μM. The plates were incubated for 48 h at 37°C in a 5% CO2 incubator. One hundred microliters per well of ATPlite luminescence reagent was added to the plates, the plates were incubated at room temperature for 30 min, and the luminescence signal was measured. The assay was performed in duplicate.

[5] = trophozoite growth, ATP content

Compound	MLC E. histolytica HM:IMSS [1]	IC50 [2, 5] [nM]	IC50 [3, 5] [nM]	IC50 ([4]; cytotoxicity, ATP content) [nM]	IC50 [4] [nM]	IC50 [2] [nM]	IC50 [3] [nM]	selectivity, IC50 for CHO cells/IC50 for amebae ([4]; vs E. histolytica)	selectivity, IC50 for CHO cells/IC50 for giardia ([4]; vs G. lamblia trophozoites)
COC1C(OC(=O)NC(=O)CN2CCOCC2)CCC2(CO2)C1C1(C)OC1CC=C(C)C (centres unmarked) [Compound 3]	3.9 nM (≈ 1.76 ng/mL)	1.6 ± 0.1	1.5 ± 0.1	> 100000					
COC1C(OC(=O)NC(=O)CN2CCC(O)CC2)CCC2(CO2)C1C1(C)OC1CC=C(C)C (centres unmarked) [Compound 4]	7.8 nM (≈ 3.64 ng/mL)	6.8 ± 0.3	4.6 ± 0.4	> 100000					
CO[C@@H]1[C@H](OC(=O)Nc2ccc(C(=O)O)cc2)CC[C@]2(CO2)[C@H]1[C@@]1(C)O[C@@H]1CC=C(C)C [Compound 9, 4-(((((3R,4S,5S,6R)-5-methoxy-4-((2R,3R)-2-methyl-3-(3-methylbut-2-en-1-yl)oxiran-2-yl)-1-oxaspiro[2.5]octan-6-yl)oxy)carbonyl)amino)benzoic acid]	31.3 nM (≈ 13.9 ng/mL)	6.3 ± 0.7	3.8 ± 0.6		> 100000				
CCOC(=O)Cc1ccc(NC(=O)OC2CCC3(CO3)C(C3(C)OC3CC=C(C)C)C2OC)cc1 (centres unmarked) [Compound 11]	125 nM (≈ 60.9 ng/mL)	7.4 ± 1.3	3.1 ± 0.5	> 100000					
COC1C(OC(=O)N2CCC(O)CC2)CCC2(CO2)C1C1(C)OC1CC=C(C)C (centres unmarked) [Compound 16]	3.9 nM (≈ 1.6 ng/mL)	2.6 ± 0.2	1.2 ± 0.04	> 100000					
CO[C@@H]1[C@H](OC(=O)/C=C/C=C/C=C/C=C/C(=O)O)CC[C@]2(CO2)[C@H]1[C@@]1(C)O[C@@H]1CC=C(C)C [Fumagillin, reference compound]	78 nM (≈ 35.8 ng/mL)				> 100000	9.5 ± 2.2	9 ± 2.2		
Cc1ncc([N+](=O)[O-])n1CCO [Metronidazole, reference compound]	1,500 nM	5570 ± 877	12700 ± 1340					> 10	< 10
